# What was measured:
# Type in all cases: cell-based
# [1] = system: Leishmania mexicana promastigotes; assay: Mitochondrial membrane potential, Mitotracker Red CMXROS, flow cytometry; conditions: treatment up to 48 hours, flow cytometry
# Experimental: In order to determine the energetic state of the mitochondrion after parasites treatment, the compound Mitotraker Red CMXROS was used. As described in the Materials and Methods section, parasites were treated for 6, 16, 24, and 48 hours with each molecule at its IC50, then incubated with Mitotraker Red CMXROS (50 nM) for 30 minutes under culture conditions, and finally analyzed by flow cytometry. […] Additionally, to rule out if Erg itself (the non-azole fraction of the conjugates) could be responsible for this hyperpolarization, parasites were treated with this compound and ΔΨmit was monitored for up to 48 hours by flow cytometry.
# Mitotracker CMX Red(Invitrogen) was used to determine the mitochondrial membrane potential (Ψmit) of treated parasites. After 6, 16, 24, and 48 hours treatment, cells were incubated in culture medium with 50 nM Mitotracker CMX Red for 30 minutes at 26°C in the dark. Thereafter, parasites were washed twice with PBS, resuspended in 1 mL buffer, and analyzed using a cytometer (Beckman Coulter). Parasites incubated with valinomycin (500 nM for 30 minutes) were used as positive control. To evaluate the effect of ergosterone coupled molecules on the mitochondrial membrane potential immediately after molecule addition we used the fluorophore rhodamine-123, a mitochondrion-specific cationic dye, which distributes across the inner mitochondrial membranes strictly according to their membrane potential, as described before. Briefly, 1 x 10^7 parasites were washed twice with rhodamine 123 loading buffer (20 mM Tris-HCl, 130 mM KCl, 1 mM MgCl2, and 2 mM KH2PO4) and incubated with 20 μM rhodamine 123 for 45 minutes at 29°C under agitation. Samples were washed twice, resuspended in 500 μL of the same buffer, and transferred to a quartz cuvette. Fluorescence (ex 488 nm and em 530 nm) was registered in a Hitachi F-7000 Spectrofluorimeter. FCCP was used as control for mitochondrial membrane depolarization.
# human dermic fibroblasts = assay: Half-inhibitory concentration on human fibroblasts, modified MTT method; conditions: Fibroblast, 72 hours
# Experimental: (§1) Promastigotes of Leishmania mexicana Bel 21 strain were cultured at 26°C in Liver Infusion Tryptone (LIT) medium supplemented with 10% fetal bovine serum (Internegocios). Primary cultures of human dermic fibroblasts were performed at 37°C in DMEN medium (Sigma) supplemented with 10% fetal bovine serum in a CO2 incubator at 5% CO2.
# (§2) To determine the IC50 in parasites and human fibroblasts the protocol described by was followed. Briefly, a suspension of 2 x 10^6 parasites per mL^-1 or 5 x 10^3 fibroblasts per well were transferred into 96 well plates and different concentrations of the compounds were added. Plates were incubated under the corresponding culture conditions for 48 or 72 hours for L. mexicana or human fibroblasts, respectively. Thereafter, parasites plates were centrifuged prior to the elimination of the supernatant. Cell viability was measured by the modified MTT method, where cells were incubated with the MTT substrate at 0.2 mg x mL^-1 for 4 hours. Colored crystals formed were solubilized in DMSO and absorbance was measured at 570 nm. IC50 was obtained from a dose response curve using the software OriginLab Pro 6.0^©.
# [2] = system: Leishmania mexicana promastigotes; assay: Half-inhibitory concentration on parasites, modified MTT method
# Experimental: Parasites were treated with different concentrations of the synthesized compounds for 48 hours to determine their cytotoxic effect. A dose dependent growth inhibition was observed after this time.
# as §1, §2
# [3] = system: Leishmania mexicana promastigotes; assay: Cytoplasmic Ca2+ level measurement with Fura 2-AM; conditions: Erg-GTr 1.4 μM or Erg-GTr2 2.3 μM; same result with extracellular Ca2+ sequestered by EGTA
# From the text: In order to evaluate the possible effect of Erg-GTr and Erg-GTr2 on the cytoplasmic Ca^2+ concentration ([Ca^2+]cyt) in L. mexicana promastigotes, parasites were loaded with fura 2-AM, a fluorimetric Ca^2+ indicator which allows the measurement of intracellular changes in its concentration. Figure 7A represents the relative [Ca^2+]cyt, indicated as normalized OD340/380 ratio.
# The fluorescent ratiometric Ca^2+ indicator Fura 2-AM was used to analyze intracellular Ca^2+ concentration. Promastigotes from stationary phase cultures were washed twice with PBS containing 1% glucose and incubated for 3 hours at 29°C with 4 μM Fura 2-AM, […], and 0.05% pluronic acid. Thereafter, parasites were washed twice, resuspended, and placed in a stirred quartz cuvette at 29°C. Fluorescence (ex 340 nm/380 nm and em 510 nm) was registered in a Hitachi F-7000 Spectrofluorimeter. Digitonin and EGTA were used to obtain the maximum and minimum [Ca^2+] in the sample, respectively.
# [4] = system: Leishmania mexicana promastigotes; assay: Alkalinization of acidocalcisomes, acridine orange; conditions: Erg-GTr 1.4 μM or Erg-GTr2 2.4 μM; nigericin 2 μM as control
# From the text: Leishmania can store Ca^2+ in different compartments like the endoplasmic reticulum, the mitochondrion, and the acidocalcisomes. The major Ca^2+ reservoir is represented by this last organelle. In order to analyze if the [Ca^2+]cyt increase is due to its release from acidocalcisomes, parasites were charged with acridine orange and assayed fluorimetrically. Since acridine orange accumulates in acidic compartments, it allows detection of alkalinization.
# To evaluate the effect of ergosterone coupled molecules on the Ca^2+ reservoir organelle acidocalcisome, parasites were stained with acridine orange as described previously. Briefly, 1 x 10^7 parasites were washed twice with loading buffer (20 mM Tris-HCl, 130 mM KCl, 1 mM MgCl2, and 2 mM KH2PO4) and incubated for 5 minutes with acridine orange (5 μM). Samples were washed twice, resuspended in 500 μL of the same buffer, and transferred to a stirred quartz cuvette at 29°C. Fluorescence (ex 488 nm and em 530 nm) was registered in a Hitachi F-7000 Spectrofluorimeter. Nigericin was used as control for acidocalcisome alkalinization.
# [5] = system: Leishmania mexicana promastigotes; assay: DNA content analysis with propidium iodide (cell cycle, SubG1); conditions: 1.4 μM Erg-GTr or 2.3 μM Erg-GTr2, 48 hours
# Experimental: In order to analyze if Erg-GTr molecules influence the normal cell cycle distribution, the DNA content of treated cells was evaluated using propidium iodide.
# Figure 4 FIGURE 4: Analysis of the DNA content in L. mexicana promastigotes. Treated (1.4 μM Erg-GTr or 2.3 μM Erg-GTr2) or control cells (DMSO) were harvested at different time points and prepared for determination of DNA content. Acquisition was performed in arithmetic scale to obtain G1 and G2/M peaks and in logarithmic scale to earn the subG1 peak. (A) Percentage of cells in the different phases of the cell cycle after 24 and 48 hours treatment. (B) SubG1 peak in percentage after 16, 24 and 48 hours drug contact. Quantification was carried out using the WinMDI software. The bars represent the mean+/-S.D. of three individual cultures measured at each time point.
# Propidium iodide was used to determinate the DNA content in parasites after treatment. 1 x 10^6 parasites were washed with PBS and resuspended in 100 μL lysis buffer (7.7 mM Na2HPO4, 2.3 mM KH2PO4) containing 6 μM digitonin. Samples were incubated at 4°C for 30 minutes. Finally, 400 μL staining buffer (20 μg/mL propidium iodide in PBS) was added to each sample. Samples were kept on ice in the dark until their analysis in the cytometer (Beckman Coulter).
compound,measurement,setting,value
"CC(C)C(C)C=CC(C)C1CCC2C3=CC(=NNC(=O)n4cnnc4)C4(O)CC(=O)CCC4(C)C3CCC21C (stereo not shown) [Erg-GTr, [1,2,4]triazole-4-carboxylic acid [5-hydroxy-10,13-dimethyl-3-oxo-17-(1,4,5-trimethyl-hex-2-enyl)-1,2,3,4,5,9,10,11,12,13,14,15,16,17-tetradecahydro-cyclopenta[a]phenanthren-6-ylidene]-hydrazide]",effect on inner mitochondrial membrane potential (ΔΨmit),[1],hyperpolarize
same,IC50,human dermic fibroblasts,13.7 ± 1.9 µM
same,IC50,"[2]; Leishmania mexicana, 48 h, read-out: IC50 on L. mexicana promastigotes",1.4 ± 0.4 µM
same,Selectivity index,[2]; promastigotes compared to human dermic fibroblasts,9.8
same,effect on cytoplasmic Ca2+ concentration ([Ca2+]cyt),[3],rapid increase
same,acridine orange fluorescence (acidocalcisome alkalinization),[4],rapid fluorescence increase
same,cell cycle arrest in the G2/M phase,[5],moderate
